Experimental data from PMC9502272, “A Metabolomics Approach for Predicting OATP1B-Type Transporter-Mediated Drug–Drug Interaction Liabilities” (Pharmaceutics, 2022).
Where “and” joins values, the source holds several entries; their conditions need not be identical. Identical values can stand only once.

How the values were obtained:
[1] = target: T1, Oatp1b2 (Mus musculus, UniProt Q9JJL3); test: Baseline plasma CDCA-24G in Oatp1b2(−/−) vs wild-type mice, validated quantitative LC-MS/MS; format: in vivo; design: from tissue; host or cells: living wild-type mice (DBA/1LacJ or FVB background); hepatic transporter in vivo; conditions: untreated, n = 6 per group
T1 sequence (Q9JJL3 1-689): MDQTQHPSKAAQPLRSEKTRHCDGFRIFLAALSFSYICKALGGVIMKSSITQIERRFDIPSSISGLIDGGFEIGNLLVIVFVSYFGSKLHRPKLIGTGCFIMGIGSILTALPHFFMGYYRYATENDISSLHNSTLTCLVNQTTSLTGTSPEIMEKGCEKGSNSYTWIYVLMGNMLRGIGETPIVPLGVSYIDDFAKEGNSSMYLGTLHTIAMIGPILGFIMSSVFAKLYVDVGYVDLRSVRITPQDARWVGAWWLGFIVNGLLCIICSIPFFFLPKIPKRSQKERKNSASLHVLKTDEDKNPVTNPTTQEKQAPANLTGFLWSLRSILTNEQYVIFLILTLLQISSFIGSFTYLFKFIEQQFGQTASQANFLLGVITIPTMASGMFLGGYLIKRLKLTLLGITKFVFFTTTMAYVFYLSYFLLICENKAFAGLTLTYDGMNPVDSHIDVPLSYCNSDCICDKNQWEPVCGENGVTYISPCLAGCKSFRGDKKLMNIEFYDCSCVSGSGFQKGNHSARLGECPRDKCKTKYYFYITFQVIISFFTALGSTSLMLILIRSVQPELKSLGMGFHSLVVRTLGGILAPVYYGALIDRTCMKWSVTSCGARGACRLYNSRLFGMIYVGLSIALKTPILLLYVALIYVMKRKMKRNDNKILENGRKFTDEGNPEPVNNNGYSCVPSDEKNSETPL
Protocol: (§1) Plasma concentrations of levels of CDCA-24G and glycochenodeoxycholate-3-sulfate (GCDCA-S) were determined using LC-MS/MS using a Vanquish UHPLC coupled with a Quantiva triple quadrupole mass spectrometer (Thermo Fisher Scientific, Waltham, MA, USA). An Accucore aQ column (50 × 2.1 mm, dp = 2.6 μm; Thermo Fisher Scientific) was protected by a C18 AQUASIL guard cartridge (2.1 mm × 10 mm, dp = 3 μm; Thermo Fisher Scientific). The injection volume of sample was 5.0 μL. The temperature of the autosampler rack was 4 °C, and the temperature of the column was maintained at 20 °C. The mobile phase was composed of solvent A (2 mmol ammonium acetate in water) and solvent B (100% methanol), and the total run time was 4.6 min. The gradient conditions were as follows: 0–0.5 min, 45% B; 0.5–2.0 min, 45 to 90%, 2.0–4.0 min, 90% B; 4.0–4.6 min, 45% B, delivered at a flow rate of 0.4 mL/min. […] Precursor molecular ions, and product ions were recorded for the confirmation and detection of GCDCA-S (528.4 > 448.3) and CDCA-24G (567.4 > 391.1), using [^2H5]-GCDCA-S (535.5 > 453.3) and [^2H5]-CDCA-24G (572.5 > 396.1) as respective internal standards. The lower limit of quantitation (LLOQ) for both analytes was determined to be 0.5 ng/mL. […]

[2] = target: T1, Oatp1b2; test: Untargeted metabolomics of plasma from untreated wild-type and Oatp1b2(−/−) mice
[3] = target: T2, OATP1B1 (Homo sapiens, UniProt Q9Y6L6); test: Uptake in HEK293 cells overexpressing OATP1B1; format: cell-based; conditions: HEK293 cells overexpressing OATP1B1, 5 min uptake, vs empty vector
T2 construct: expressed in transfected cells; host or cells: HEK293 (ATCC)
T2 sequence (Q9Y6L6 1-691): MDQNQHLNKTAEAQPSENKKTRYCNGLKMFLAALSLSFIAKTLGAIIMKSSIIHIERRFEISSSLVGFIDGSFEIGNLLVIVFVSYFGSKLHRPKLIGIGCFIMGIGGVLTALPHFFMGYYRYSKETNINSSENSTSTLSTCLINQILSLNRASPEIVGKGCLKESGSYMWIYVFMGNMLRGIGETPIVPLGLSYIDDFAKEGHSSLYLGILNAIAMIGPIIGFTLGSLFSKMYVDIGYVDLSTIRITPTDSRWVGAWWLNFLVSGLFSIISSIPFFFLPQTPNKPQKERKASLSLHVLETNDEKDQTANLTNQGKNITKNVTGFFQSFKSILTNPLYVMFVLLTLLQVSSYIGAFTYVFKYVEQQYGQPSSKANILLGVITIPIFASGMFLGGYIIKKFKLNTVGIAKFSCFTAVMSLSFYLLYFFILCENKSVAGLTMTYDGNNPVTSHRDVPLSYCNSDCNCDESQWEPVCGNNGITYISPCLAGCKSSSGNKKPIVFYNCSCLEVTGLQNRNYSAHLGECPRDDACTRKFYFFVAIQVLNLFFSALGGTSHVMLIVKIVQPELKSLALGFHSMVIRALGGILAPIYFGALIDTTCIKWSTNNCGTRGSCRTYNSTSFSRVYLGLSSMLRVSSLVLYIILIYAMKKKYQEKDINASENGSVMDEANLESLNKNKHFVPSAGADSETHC
Protocol: The generation of human embryonic kidney (HEK293) cells (ATCC) engineered to overexpress OATP1B1, Oatp1b2, or empty vector, the cell culture conditions, and general details of uptake studies have been reported in detail elsewhere. Briefly, cells were grown to 90% confluence on poly-lysine coated multi-well plates. […] The pre-treatment medium was rinsed off with warm 1× PBS followed by the addition of the test compounds for an incubation period of 5 min. After incubation, transport was halted by aspirating the medium and rinsing the cells three times with ice-cold 1× PBS. After lysing cells with 0.1 N HCl, and subsequent adding methanol, 20 μL aliquots were mixed with 60 μL of acetonitrile containing relevant internal standards. After vortex mixing, the mixtures were centrifuged, and the supernatants were used for quantitative analysis by LC-MS/MS. Drug uptake results were normalized to total protein content and then to data obtained in cells carrying an empty vector plasmid, which was set to 100%.

[4] = system: human OATP1B1; test: Baseline plasma CDCA-24G in Oatp1a/1b(−/−) mice with transgenic hepatic expression of OATP1B1 (OATP1B1(tg)); format: in vivo, mouse; conditions: range stated jointly for OATP1B1(tg) and OATP1B3(tg)
Protocol: as §1

SMILES: C[C@H](CCC(=O)O[C@@H]1O[C@H](C(=O)O)[C@@H](O)[C@H](O)[C@H]1O)[C@H]1CC[C@H]2[C@@H]3[C@H](O)C[C@@H]4C[C@H](O)CC[C@]4(C)[C@H]3CC[C@]12C [CDCA-24G, chenodeoxycholate-24-glucuronide]
- Plasma concentration of CDCA-24G in Oatp1b2(−/−) mice relative to wild type [1]: 31 fold and > 30 fold
- Increase of plasma level in Oatp1b2(−/−) mice vs. wild-type mice ([2]; based on semi-quantitative analysis): ≈ 98 fold
- Fold of Change KO/WT ([2]; plasma of untreated Oatp1b2-deficient (KO) vs wild-type (WT) mice, semi-quantitative, positive = higher in KO, n = 6 per group): 97.9
- Mean value KO ([2]; plasma of untreated Oatp1b2-deficient mice, raw area counts rescaled to median = 1): 1.15
- Mean value WT ([2]; plasma of untreated wild-type mice, raw area counts rescaled to median = 1): .0120
- Transport by human OATP1B-type transporter [3]: efficiently transported
- Baseline CDCA-24G level, fold lower than in Oatp1a/1b(−/−) mice [4]: 5- to 7 fold
